Here are results for 7 compounds from patent publication US3940386A, “Substituted cinnamoyl-piperazine-pyridyl compound” (Cermol S.A., priority 1973, dated 1976).

Where a name gives a salt, the structure may show the parent alone.

Data set [1] deals with mice. The data set is described as follows: Toxicity (mice), I.G. (Table III). It is filed as in vivo. From the text: (§1) The products were used in the form of the trihydrochloride, except the product under the letter "b" which was used in the form of the dihydrochloride.
Data set [2] is described as follows: Toxicity (mice), I.G. (Table III). To be noted: mouse, in vivo, po. The format is in vivo.
From the text: as §1

Data set [3] can be described thus: Set of methods and tests of the activity of the products (vasodilatatory, spasmolytic, antihistaminic, cholinolytic, sedative, depressant, neurotoxic). From the text:
The set of methods and tests effected enabled us to appreciate the activity of the products according to the invention. It clearly follows therefrom that the products wherein: […]

The test system of data set [4] is cerebral circulation. The data set is described as follows: Cerebral circulation: PO2 of the venous cerebral blood (sinus sagittalis) in cats anaesthetized with Nembutal. It is filed as in vivo. To be noted: intravenous perfusion. As for the experimental part: In the course of a series of experiments on cats anaesthetized with Nembutal, the cynetics of PO2 of the venous cerebral blood were measured (from the sinus sagittalis) during an intravenous perfusion of this product.

The nature of data set [5]: Acute toxicity, oral, albino rats (Table II). To be noted: rat, in vivo, aqueous solution. It is filed as in vivo. The procedure: (§2) Tests were performed on mice and albino rats, the active compound being administered orally in the form of an aqueous solution.
Data set [6] concerns albino rats. Nature of the data set: Acute toxicity, oral, albino rats (Table II). The settings on record: aqueous solution. The format is in vivo. As for the experimental part:
as §2

For data set [7], the system named is mice. The data set is described as follows: Acute toxicity, oral, mice (Table II). The format is in vivo. The settings on record: aqueous solution. The procedure:
as §2

Data set [8] can be described thus: Acute toxicity, oral, mice (Table II). It is filed as in vivo. To be noted: mouse, in vivo, aqueous solution. The procedure: as §2
Data set [9] concerns mice. Nature of the data set: Acute toxicity on mice, orally and intraperitoneally (Table I). It is filed as in vivo. The settings on record: for LD0: suspended in gum syrup or labrafil. The procedure: (§3) Tests were performed on mice, orally (P.O.) and intraperitoneally (I.P.), the active compounds being suspended in gum syrup or labrafil.
Experiment in data set [10]: as above
It is filed as in vivo. To be noted: mouse, in vivo, suspended in gum syrup or labrafil. The procedure: as §3

In turn, `Fc1ccc(C(c2ccccn2)N2CCN(CC=Cc3ccccc3)CC2)cc1` (stereo not drawn) [1(2'-pyridyl-4"-fluorophenyl)-methyl-4-cinnamyl piperazine] had an LD0 in data set [1] (mouse, in vivo) of 300 mg/kg. The compound further showed an LD50 in data set [2] of 400 mg/kg. Further, in data set [3], the antihistaminic activity entry is on record as “well-defined”, the depressant properties entry is given as “do not show”, the neurotoxic properties result is on record as “do not show” and the spasmolytic activity result was “well-defined”. Further, the vasodilatatory activity result in data set [3] is “well-defined”.
`Clc1ccc(C(c2ccccn2)N2CCN(CC=Cc3ccccc3)CC2)c(Cl)c1` (stereo not drawn) [1-(2'-pyridyl-2",4"-dichlorophenyl)-methyl-4-cinnamyl piperazine trihydrochloride] returned an LD0 in data set [1] (mouse, in vivo) of 400 mg/kg. Besides, in data set [2], the median lethal dose (LD50) is 600 mg/kg. Besides, in [3], the antihistaminic activity result is “well-defined”, the depressant properties entry is “do not show”, the neurotoxic properties entry is “do not show” and the spasmolytic activity result is on record as “well-defined”. Further, in data set [3], the vasodilatatory activity result is recorded as “well-defined”.
With `Clc1ccc(C(c2ccccn2)N2CCN(CC=Cc3ccccc3)CC2)cc1` (stereo not drawn) [1-(2'-pyridyl-4"-chlorophenyl)-methyl-4-cinnamyl piperazine], the LD0 in [1] (mouse, in vivo) is listed as 400 mg/kg. The same compound returned an LD50 in [2] of 1180 mg/kg. For the same compound, in data set [3], the antihistaminic activity result is listed as “well-defined”, the depressant properties entry is “do not show”, the neurotoxic properties entry is reported as “do not show” and the spasmolytic activity entry is reported as “well-defined”. In [3], the vasodilatatory activity entry is “well-defined”. The “activity with respect to cerebral circulation” value in data set [4] is “important activity”.
In turn, `CC(c1ccc(Cl)cc1)(c1ccccn1)N1CCN(CC=Cc2ccccc2)CC1` (stereo not drawn) [1-(2'-pyridyl-4"-chlorophenylmethyl)-methyl-4-cinnamyl piperazine] came in with an LD0 in data set [1] (mice, I.G.) of 400 mg/kg. Further, in data set [2] (mice, I.G.), the LD50 was 500 mg/kg. In addition, the sedative activity entry in data set [3] is reported as “presents a sedative activity”.
As to `C(=Cc1ccccc1)CN1CCN(C(c2ccccc2)c2ccccn2)CC1` (stereo not drawn) [1-(2'-pyridylphenyl)-methyl-4-cinnamyl piperazine], the values for the LD50 in data set [5] and in [8] were 1200 mg/kg and 295 mg/kg, respectively. The LD0 in data set [6] was determined as 200 mg/kg; in data set [7], 175 mg/kg.
As for `C(=Cc1ccccc1)CN1CCN(C(c2ccccc2)C2CC2)CC1` (stereo not drawn) [--CH2 --, 1-(cyclopropylphenyl)-methyl-4-cinnamyl piperazine], in data set [9] (P.O.), the “LD0” value is around 300 mg/kg. This compound had an LD50 in data set [10] (po, P.O.) of 570 mg/kg.
Regarding `O=C(C=Cc1ccccc1)N1CCN(C(c2ccccc2)C2CC2)CC1` (stereo not drawn) [C = O, 1-(cyclopropylphenyl)-methyl-4-cinnamoyl piperazine], the entries for the “LD0” value in data set [9] (I.P.) and in data set [9] (P.O.) were above 400 mg/kg and above 1000 mg/kg, respectively. For the same compound, the toxicity entry in data set [9] (in words) was “very low toxicity”. Also, the LD50 in data set [10] (ip, I.P.) was 1480 mg/kg; in [10] (po, P.O.), above 4000 mg/kg.

For orientation: LD50 means the dose at which mortality reaches 50%.
